Results reported in patent US9421356B2, “Transdermal methods and systems for the delivery of corticosteroid compounds” (priority 2007, dated 2016).
Read-outs that look alike come from different tables or passages of the source.

Assays:
[1] = Systemic delivery study: plasma pharmacokinetics after iontophoretic patch or subcutaneous injection; type: in vivo, domestic swine; details: subcutaneous 6 mg; for Cmax / half-life / AUC(0-t): pig, sc; for half-life: read-out: t½ (converted)
Source text: The purpose of the study was to determine the systemic plasma exposure, absorption characteristics and elimination characteristics of the active agent Dexamethasone sodium phosphate, (DexP) when administered from either a subcutaneous injection or an iontophoretic patch in domestic swine.
The patch is an active (iontophoretic) drug delivery patch which employs a low-level electrical field produced by a novel power source incorporated into the patch to “drive” the drug into the body in a pain-free manner. This system has advantages over passive patches, including more rapid and controlled delivery and the ability to deliver a wider variety of drugs.
The study entailed administration of DexP from three concurrently applied patches delivered at 150 μA, 225 μA and 300 μA over a 9 hour period in 1 male and 1 female domestic swine. Each patch contained a 10 mg/ml Dexamethasone sodium phosphate gel (2% HPMC) in the donor cell compartment, and a 0.9% saline gel (2% HPMC) in the return cell compartment. As a comparator, a subcutaneous 6 mg dose of DexP was delivered to 1 male and 1 female domestic swine. All animals were implanted with a central venous access port (Hickman catheter) prior to administration of the drug and plasma samples were obtained pre-dosing and up to 24 hours after dosing. Samples were analyzed for the presence of dexamethasone phosphate and the data tabulated and selected pharmacokinetic parameters were calculated.

[2] = iontophoresis of 4 mg/ml solution, charge dosage 40-80 mA-minutes, cited from earlier work
[3] = in vivo, female swine (animal 8P168)
[4] = in vivo, male swine (animal 8P167)

Row | Structure (SMILES) | Cmax [1, 3] | half-life [1, 3] | Cmax [1, 4] | AUC(0-t) ([1]; in vivo, male swine (animal 8P167), read-out: AUC(0-12)) | half-life [1, 4] | AUC(0-t) ([1]; plasma, female swine, read-out: AUC(0-14)) | AUC(0-12) ([1]; female swine (animal 8P168)) | amount of dexamethasone delivered (highest estimate) ([2]; J Pharm Compounding 2003) | amount of dexamethasone delivered (lowest estimate) ([2]; Petelenz 1992)
1 | C[C@@H]1C[C@H]2[C@@H]3CCC4=CC(=O)C=C[C@]4(C)[C@@]3(F)[C@@H](O)C[C@]2(C)[C@@]1(O)C(=O)COP(=O)(O)O [DexP, Dexamethasone sodium phosphate] | 27.3 ng/mL | 1.5 h | 28.4 ng/mL | 36.4 ng·h/mL | 0.85 h | 60.5 ng·h/mL | 60.5 ng·h/mL | – | –
2 | C[C@@H]1C[C@H]2[C@@H]3CCC4=CC(=O)C=C[C@]4(C)[C@@]3(F)[C@@H](O)C[C@]2(C)[C@@]1(O)C(=O)CO [dexamethasone] | – | – | – | – | – | – | – | 1.4 milligrams | 10 micrograms
